Laboratory results published in ChEMBL document CHEMBL1201862, “PubChem BioAssay data set” (2004).
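How tested: cells in 96-well plates exposed to compound for 48 hours at five concentrations. GI50 marks 50% less growth.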 Active and inactive are the calls of the source. No stated cut-off is given here; in the data, active = GI50 up to about 1.1 µM and inactive = higher.

What was measured:
Experiment in all cases: NCI-60 cell line screen, 48 h
[1] = system: EKVX
[2] = system: RXF 393
[3] = system: HT-29
[4] = system: CCRF-CEM
[5] = system: NCI-H23
[6] = system: HCT-116
[7] = system: SF-295
[8] = system: SK-MEL-2
[9] = system: TK-10
[10] = system: DU-145
[11] = system: MDA-MB-231
[12] = system: HOP-92
[13] = system: NCI-H522
[14] = system: A498
[15] = system: OVCAR-8
[16] = system: HCT-15
[17] = system: SF-539
[18] = system: A549
[19] = system: NCI/ADR-RES

| Structure (SMILES) | GI50 [1] | GI50 [2] | GI50 [3] | GI50 [4] | GI50 [5] | GI50 [6] | GI50 [7] | GI50 [8] | GI50 [9] | GI50 [10] | GI50 [11] | GI50 [12] | GI50 [13] | GI50 [14] | GI50 [15] | GI50 [16] [µM] | GI50 [17] | GI50 [18] | GI50 [19] |
| --- | --- | --- | --- | --- | --- | --- | --- | --- | --- | --- | --- | --- | --- | --- | --- | --- | --- | --- | --- |
| Nc1nc(N)c2c(-c3ccccc3)ccnc2n1 | 18.5 µM (inactive) | > 100 µM (inactive) | > 100 µM (inactive) | > 100 µM (inactive) | > 100 µM (inactive) | > 100 µM (inactive) | > 100 µM (inactive) | > 100 µM (inactive) | > 100 µM (inactive) | > 100 µM (inactive) | > 100 µM (inactive) | 81.7 µM (inactive) | > 100 µM (inactive) | > 100 µM (inactive) | – | – | – | – | – |
| CCOC(=O)c1c(C)[nH]c2c1c(CN(C)C)c(O)c1nc(C)c(C)nc12 | 27.3 µM (inactive) | 20.8 µM (inactive) | 21.6 µM (inactive) | 10.8 µM (inactive) | 27.8 µM (inactive) | 17.2 µM (inactive) | 20.2 µM (inactive) | 20.4 µM (inactive) | 24.2 µM (inactive) | 26.2 µM (inactive) | – | 31.8 µM (inactive) | 16.3 µM (inactive) | 15.2 µM (inactive) | 21.4 µM (inactive) | 26.4 | 18 µM (inactive) | 22.4 µM (inactive) | 24.2 µM (inactive) |
| COc1c2c(cc3c1C(=O)c1c(O)cccc1C3=O)CC(O)CC2 (configuration not stated) | 29.8 µM (inactive) | – | > 100 µM (inactive) | > 100 µM (inactive) | 20.1 µM (inactive) | 24.6 µM (inactive) | 19.2 µM (inactive) | > 100 µM (inactive) | 50.5 µM (inactive) | 57.7 µM (inactive) | 21.6 µM (inactive) | 18.7 µM (inactive) | – | 22.8 µM (inactive) | 40.5 µM (inactive) | 35.8 | 28.8 µM (inactive) | > 100 µM (inactive) | 35.8 µM (inactive) |
| NNC(=S)N1CCN(C(=S)NN)CC1 | > 100 µM (inactive) | – | > 100 µM (inactive) | > 100 µM (inactive) | > 100 µM (inactive) | > 100 µM (inactive) | > 100 µM (inactive) | > 100 µM (inactive) | – | > 100 µM (inactive) | > 100 µM (inactive) | > 100 µM (inactive) | > 100 µM (inactive) | 4.97 µM (inactive) | – | – | – | > 100 µM (inactive) | – |
| CCCN1CC=C(c2cc(C(=O)OCC)[nH]c2-c2cc(C)no2)C1=O | > 100 µM (inactive) | > 100 µM (inactive) | > 100 µM (inactive) | 89.3 µM (inactive) | > 100 µM (inactive) | > 100 µM (inactive) | > 100 µM (inactive) | > 100 µM (inactive) | – | > 100 µM (inactive) | > 100 µM (inactive) | > 100 µM (inactive) | – | > 100 µM (inactive) | > 100 µM (inactive) | > 100 | > 100 µM (inactive) | > 100 µM (inactive) | > 100 µM (inactive) |
| Cc1cc2cc3ccccc3cc2c(=O)[nH]1 | > 10 µM (inactive) | > 10 µM (inactive) | > 10 µM (inactive) | > 10 µM (inactive) | > 10 µM (inactive) | > 10 µM (inactive) | > 10 µM (inactive) | – | > 10 µM (inactive) | > 10 µM (inactive) | – | > 10 µM (inactive) | > 10 µM (inactive) | – | > 10 µM (inactive) | – | > 10 µM (inactive) | > 10 µM (inactive) | – |
| Cc1cc2c(=O)cc(-c3ccncc3)oc2c(C(=O)O)c1C | > 100 µM (inactive) | > 100 µM (inactive) | > 100 µM (inactive) | > 100 µM (inactive) | > 100 µM (inactive) | > 100 µM (inactive) | > 100 µM (inactive) | > 100 µM (inactive) | > 100 µM (inactive) | – | – | > 100 µM (inactive) | – | – | > 100 µM (inactive) | > 100 | > 100 µM (inactive) | > 100 µM (inactive) | – |
| COC(=O)c1ccc(/C=C2\Oc3ccccc3C2=O)cc1 | > 100 µM (inactive) | > 100 µM (inactive) | > 100 µM (inactive) | 58.1 µM (inactive) | > 100 µM (inactive) | > 100 µM (inactive) | > 100 µM (inactive) | – | > 100 µM (inactive) | > 100 µM (inactive) | > 100 µM (inactive) | – | 32.1 µM (inactive) | – | > 100 µM (inactive) | > 100 | > 100 µM (inactive) | > 100 µM (inactive) | > 100 µM (inactive) |
| CCOC(=O)C1CCC/C1=N\NC(=N)N.Cc1cc(O)c(C(C)C)cc1S(=O)(=O)O (configuration not stated) | > 100 µM (inactive) | > 100 µM (inactive) | > 100 µM (inactive) | > 100 µM (inactive) | > 100 µM (inactive) | > 100 µM (inactive) | > 100 µM (inactive) | > 100 µM (inactive) | > 100 µM (inactive) | > 100 µM (inactive) | > 100 µM (inactive) | – | > 100 µM (inactive) | > 100 µM (inactive) | > 100 µM (inactive) | > 100 | > 100 µM (inactive) | > 100 µM (inactive) | > 100 µM (inactive) |
| N=c1oc2ccc3ccccc3c2cc1-c1nc(O)c2ccccc2n1 | 19.5 µM (inactive) | 10.6 µM (inactive) | 13 µM (inactive) | – | – | 24.4 µM (inactive) | 30.2 µM (inactive) | 14.4 µM (inactive) | 21 µM (inactive) | 36.4 µM (inactive) | 24.1 µM (inactive) | 15.1 µM (inactive) | 3.27 µM (inactive) | – | 26.7 µM (inactive) | 19.9 | 31.2 µM (inactive) | 20.7 µM (inactive) | 14.2 µM (inactive) |
| O=C1/C(=C\c2ccc([N+](=O)[O-])cc2)N(S(=O)(=O)c2ccccc2)c2ncccc21 | > 10 µM (inactive) | 16.6 µM (inactive) | 16.6 µM (inactive) | 2.98 µM (inactive) | 13.7 µM (inactive) | 18.2 µM (inactive) | 28.2 µM (inactive) | – | 17.5 µM (inactive) | 27.5 µM (inactive) | 16.1 µM (inactive) | – | 18.3 µM (inactive) | – | 20.9 µM (inactive) | 15.7 | 24.8 µM (inactive) | 40.2 µM (inactive) | 23.9 µM (inactive) |
| Nc1ccc2[nH]cc(CCC(=O)O)c2c1 | > 100 µM (inactive) | > 100 µM (inactive) | > 100 µM (inactive) | 9.48 µM (inactive) | > 100 µM (inactive) | > 100 µM (inactive) | > 100 µM (inactive) | > 100 µM (inactive) | > 100 µM (inactive) | > 100 µM (inactive) | > 100 µM (inactive) | – | > 100 µM (inactive) | > 100 µM (inactive) | > 100 µM (inactive) | > 100 | > 100 µM (inactive) | > 100 µM (inactive) | > 100 µM (inactive) |
| CCOC(=O)/C(=C/c1ccccc1Br)P(=O)(OCC)OCC | 2.58 µM (inactive) | 1.17 µM (inactive) | 2.82 µM (inactive) | 0.738 µM (active) | 1.73 µM (inactive) | 3.15 µM (inactive) | 3.96 µM (inactive) | 1.84 µM (inactive) | 3.23 µM (inactive) | – | – | 1.46 µM (inactive) | 0.927 µM (active) | 3.19 µM (inactive) | 1.91 µM (inactive) | 1.78 | 2.4 µM (inactive) | 2.67 µM (inactive) | – |
| CC(C)NC(=O)OCc1c(COC(=O)NC(C)C)n(C)c2c1ccc1cc(Cl)c(Cl)cc12 | 14.8 µM (inactive) | 12.2 µM (inactive) | 15.9 µM (inactive) | 3.33 µM (inactive) | 12.8 µM (inactive) | 11.7 µM (inactive) | 16.6 µM (inactive) | 17.3 µM (inactive) | 5.43 µM (inactive) | – | 12.7 µM (inactive) | 11.4 µM (inactive) | 1.49 µM (inactive) | 1.75 µM (inactive) | 11.6 µM (inactive) | 12.7 | 13.5 µM (inactive) | 19.5 µM (inactive) | 15.9 µM (inactive) |
| Cc1n2nc(N)sc2n[n+]1CC(=O)c1ccccc1 | > 100 µM (inactive) | > 100 µM (inactive) | > 100 µM (inactive) | 70 µM (inactive) | > 100 µM (inactive) | > 100 µM (inactive) | > 100 µM (inactive) | > 100 µM (inactive) | > 100 µM (inactive) | > 100 µM (inactive) | – | – | > 100 µM (inactive) | > 100 µM (inactive) | > 100 µM (inactive) | > 100 | > 100 µM (inactive) | > 100 µM (inactive) | > 100 µM (inactive) |
| COc1ccc(C(C)NNC(=O)c2ccncc2)cc1OC (configuration not stated) | > 100 µM (inactive) | > 100 µM (inactive) | > 100 µM (inactive) | > 100 µM (inactive) | > 100 µM (inactive) | > 100 µM (inactive) | > 100 µM (inactive) | > 100 µM (inactive) | > 100 µM (inactive) | > 100 µM (inactive) | > 100 µM (inactive) | > 100 µM (inactive) | – | > 100 µM (inactive) | > 100 µM (inactive) | > 100 | > 100 µM (inactive) | > 100 µM (inactive) | > 100 µM (inactive) |
| S=C(S)NCNC(=S)S | > 100 µM (inactive) | > 100 µM (inactive) | > 100 µM (inactive) | > 100 µM (inactive) | > 100 µM (inactive) | > 100 µM (inactive) | > 100 µM (inactive) | – | > 100 µM (inactive) | > 100 µM (inactive) | > 100 µM (inactive) | > 100 µM (inactive) | – | 89.7 µM (inactive) | > 100 µM (inactive) | > 100 | > 100 µM (inactive) | > 100 µM (inactive) | > 100 µM (inactive) |
